Data: patent publication US20210260008A1, “COMBINATION THERAPY FOR TREATING CANCER” (THE JOHNS HOPKINS UNIVERSITY, priority 2018, published 2021)
Read-outs that look alike come from different tables or passages of the source.

Experiments:
[1] = system: VEGF-β-Defensin ID8 (VDID8) syngeneic mouse ovarian surface epithelial (MOSE) cells; experiment: VDID8 syngeneic ovarian cancer mouse model: tumor burden (ascites volume) and survival; details: for median survival / overall survival / tumor burden (ascites volume): VDID8 mice; for median survival / overall survival: AZA 0.5 mg/kg i.p., 2% DFMO in water; for tumor burden (ascites volume): treated vs vehicle; for tumor burden (ascites volume) compared with combination therapy: second ascites drain, week 5 post tumor injection
Method: Mice were injected i.p. with 250,000 VEGF-DEFB ID8 MOSE cells (VDID8). 0.5 mg/kg of AZA was given i.p. 5 days a week, every other week. 2% DFMO was provided in water bottles. Mice were treated throughout the duration of the experiment. Upon 25-30% weight gain, ascites fluid was drained from mice and processed for analysis of the tumor microenvironment. FIG. 1B: Tumor burden, represented by ascites volume, 5 weeks post tumor injection. Data is from the second ascites drain procedure, the first was 4 weeks post tumor injection. Representative data (mean +/−SEM shown). n=10; four biological replicates. Data were tested for a Gaussian distribution using Shapiro-Wilk test and found not to be normal. Significance was determined using Kruskal Wallis test; statistical outliers removed using Peirce's criterion. FIG. 1C: Representative survival curve (median survival in days); n=10; four biological replicates. Significance determined using log-rank Mantel-Cox test.
Animals. Female C57BL/6NHsd wild-type (WT) mice (7-8 wk old) were purchased from Envigo International Holdings, Inc. (Indianapolis, Ind.). Mice were housed at the Johns Hopkins Kimmel Cancer Center Animal Resources Core and cared for in accordance with the policies of The Johns Hopkins University Animal Care and Use Committee and our approved animal protocol.
Syngeneic mouse model. 250,000 VEGF-β-Defensin ID8 (VDID8) syngeneic mouse ovarian surface epithelial (MOSE) cells were injected intraperitoneally into wild-type (WT) C57BL/6 mice.
Mice were treated with 0.5 mg/kg AZA/saline, Monday through Friday, every other week and continuous 2% DFMO in drinking water.
Mice were treated IP with AZA (0.5 mg/kg) or saline vehicle, DFMO (2% in water), or combination AZA and DFMO beginning three days post tumor injection (FIG. 1A).

VDID8 cells = experiment: HPLC analysis of polyamine levels in cultured, treated VDID8 cells; type: cell-based, mouse; details: in vitro; 500 nM AZA 10 days, 5 mM DFMO 3 days
Method: (§1) FIG. 6A-6B. DFMO treatment of VDID8 cells in vitro reduces putrescene and spermidine levels. FIG. 6A: VDID8 cells were cultured in 10% FBS RPMI+gentamicin for one week prior to beginning 10 day treatment. Cells were treated with 500 nM AZA/saline for 10 days and 5 mM DFMO/water for 3 days. AZA+DFMO cells were treated with 500 nM AZA for the first 7 days, and 500 nM AZA + 5 mM DFMO for the final 3 days of treatment. High-performance liquid chromatography (HPLC) analysis of polyamine levels in cultured, treated VDID8 cells are shown. n=3. FIG. 6B: Bulk ascites fluid was collected from individual mice treated with DFMO, AZA, or AZA+DFMO. Bulk ascites cells were lysed and washed and remaining cells were prepped for HPLC analysis of polyamine levels. n=4-10. All data were tested for a Gaussian distribution and found to be normal using Shapiro-Wilk test. Significance was determined using a one way ANOVA.
(§2) Polyamines. Polyamines were analyzed via high-performance liquid chromatography (HPLC) as previously described (36).

2208L breast tumors = experiment: 2208L breast tumor mouse model
Description: Significance determined using log-rank Mantel-Cox test.
Tumor size as measured once weekly in mice bearing 2208L breast tumor xenografts (week 6 post tumor implant).
Mature or activated dendritic cells in the tumor microenvironment of the 2208L breast cancer model, shown as a percentage of dendritic cells.

[2] = system: immune cells in tumor associated ascites (tumor microenvironment); experiment: Flow cytometry of immune cell populations in tumor associated ascites of VDID8 mice; type: in vivo, mouse; details: for Percentage of M1 macrophages (MHCII+ CD206−) / total numbers of lymphocytes in ascites: week 5; for T cell, NK cell, and IFNγ+ lymphocyte populations: week 5 post tumor injection; for MHC II positive (MHCII Hi, M1-like) macrophages: compared to vehicle; for total numbers of lymphocytes in ascites: compared to vehicle / single agents
Method: Ascites tissue harvest and processing. When ascites fluid is collected from the mice, the cells obtained represent the tumor microenvironment and can be further analyzed to help illustrate the mixed population of cells surrounding the tumor. Ascites was collected, filtered, incubated in ACK buffer (Quality Biological) to lyse red blood cells, and washed. The mononuclear cells collected were then cultured for four hours in RPMI (Corning) with 10% FBS in the presence of phorbol 12-myristate 13-acetate (PMA) and ionomycin to stimulate cells, and brefeldin A and monensin (Invitrogen 00-4975-93) to cause aggregation of secreted proteins inside the cell.
Flow cytometry. Cells were washed and blocked with FcR Blocking Reagent (Miltenyi Biotec 130-092-575) and stained for cell-surface markers including Live/Dead (eBioscience 65-0865-14), CD45 (BD Biosciences 563891), CD3 (BD Biosciences 560527), CD4 (BD Biosciences 563331), CD8 (BD Biosciences 563152), NK1.1 (BD Biosciences 562921), F4/80 (BioLegend 123113), CD11b (BioLegend 101222), MHC II (isotype control 400627; BioLegend 107619), CD206 (BioLegend 141708), CD11c (BD Biosciences 564079), Ly6C (BD Biosciences 562728), Ly6G (BD Biosciences 563005), CD80 (BD Biosciences 553769), and CD86 (BD Biosciences 558703). Cells were permeabilized and stained for intracellular IFNγ (isotype control 554686; BD Biosciences 554413). Flow cytometry acquisition was performed on an LSR II cytometer (BD Biosciences), and data were analyzed using FlowJo software version 10.2.
Flow sorting. Lysed and processed bulk ascites cells were blocked with FcR Blocking Reagent (Miltenyi Biotec 130-092-575) and stained for cell-surface markers including Live/Dead (eBioscience 65-0865-14), CD45 (BD Biosciences 563891), F4/80 (BioLegend 123113), CD11b (BioLegend 101222), MHC II (isotype control 400627; BioLegend 107619), CD206 (BioLegend 141708), and CD11c (BD Biosciences 564079). Prepared cells were suspended in PBS and sorted immediately on a BSL-2 FACSAria II. M1 macrophages were sorted on a gate as follows: CD45+ L/D− F4\80+ CD11b+ MHC II+ CD206− CD11c−. M2 macrophages were sorted on a gate as follows: CD45+ L/D− F4\80+ CD11b+ MHC II− CD206+ CD11c−.

bulk ascites cells = experiment: HPLC analysis of polyamine levels in bulk ascites cells from treated mice; type: in vivo, mouse; details: bulk ascites cells from treated animals
Method: as §1, §2

[3] = cited from earlier work
[4] = system: LPS-stimulated macrophages; details: LPS-stimulated macrophages in vitro (ref. 48); cited from earlier work

Nc1ncn([C@@H]2O[C@H](CO)[C@@H](O)[C@H]2O)c(=O)n1 [AZA, 4-amino-1-β-D-ribofuranozyl-s-triazin-2(1H)-one]
median survival [1]: approximately 44 days
overall survival [1]: significantly increased survival
tumor burden (ascites volume) [1]: decreased tumor burden
tumor burden (ascites volume) compared with combination therapy [1]: higher tumor burden
putrescine and spermidine levels (VDID8 cells): stimulatory effect
mature or activated dendritic cells as a percentage of dendritic cells (2208L breast tumors; tumor microenvironment of 2208L model): increases activation
tumor burden / tumor size (2208L breast tumors; weeks 3 through 6 post tumor implant surgery): no impact on tumor size
total macrophage populations in the tumor microenvironment ([2]; ascites): consistently decreased
Percentage of M1 macrophages (MHCII+ CD206−) ([2]; ascites): increased
T cell, NK cell, and IFNγ+ lymphocyte populations ([2]; ascites): significant increases
MHC II positive (MHCII Hi, M1-like) macrophages [2]: increased
total numbers of lymphocytes in ascites [2]: significantly increased
polyamine levels (putrescine, spermidine, spermine) (bulk ascites cells): No significant changes
solubility ([3]; acetone, ethanol and methyl ketone): insoluble
solubility ([3]; dimethylsulfoxide (DMSO)): soluble
solubility ([3]; ethanol/water (50/50), propylene glycol and polyethylene glycol): slightly soluble
solubility ([3]; water, water-saturated octanol, 5% dextrose in water, N-methyl-2-pyrrolidone, normal saline and 5% Tween 80 in water): sparingly soluble

NCCCC(N)(C(=O)O)C(F)F (centres unmarked) [DFMO, 2-(difluoromethyl)-2,5-diaminopentanoic acid]
median survival [1]: approximately 44 days
overall survival [1]: significantly increased survival
tumor burden (ascites volume) [1]: decreased tumor burden
tumor burden (ascites volume) compared with combination therapy [1]: higher tumor burden
putrescine and spermidine levels (VDID8 cells): significant decrease
NO production [4]: potentiate NO production
tumor volume (2208L breast tumors; measured once weekly, week 6 post tumor implant): maintains low tumor volumes
Percentage of M1 macrophages (MHCII+ CD206−) ([2]; ascites): increased
T cell, NK cell, and IFNγ+ lymphocyte populations ([2]; ascites): significant increases
MHC II positive (MHCII Hi, M1-like) macrophages [2]: increased
total numbers of lymphocytes in ascites [2]: significantly increased
polyamine levels (putrescine, spermidine, spermine) (bulk ascites cells): decreased (although not significantly)
